In general, IC50 refers to the midpoint of a concentration-inhibition curve. Broadly, the melting point is the temperature, or range, at which the solid turns liquid.

Bounds are passed on as bounds.

One data set concerns the target Human HDAC1 (Homo sapiens (Human), UniProt Q13547). Nature of the data set: HDAC1 fluorogenic peptide deacetylation assay. The settings on record: human HDAC1, 50 μM substrate, 30° C., 2 h; read-out: IC50 (nM) of enzyme activity HDAC1. The data set is classed as biochemical.
Another data set concerns the target Human HDAC2 (Homo sapiens (Human), UniProt Q92769). Nature of the data set: HDAC2 fluorogenic peptide deacetylation assay. The settings on record: human HDAC2, 50 μM substrate, 30° C., 2 h; read-out: IC50 (nM) of enzyme activity HDAC2. Format: biochemical.
A further data set addresses Human HDAC3/NcoR2 (Homo sapiens (Human), UniProt O15379). Nature of the data set: HDAC3 fluorogenic peptide deacetylation assay. The data set is classed as biochemical. The settings on record: human HDAC3/NcoR2, 50 μM substrate, 30° C., 2 h; read-out: IC50 (nM) of enzyme activity HDAC3.
For another data set, the target named is Human HDAC6 (Homo sapiens (Human), UniProt Q9UBN7). Nature of the data set: HDAC6 fluorogenic peptide deacetylation assay. The data set is classed as biochemical. The settings on record: human HDAC6, 50 μM substrate, 30° C., 2 h; read-out: IC50 (nM) of enzyme activity HDAC6.
For the next data set, the target named is Human HDAC8 (Homo sapiens (Human), UniProt Q9BY41). Nature of the data set: HDAC8 fluorogenic peptide deacetylation assay. Format: biochemical. The settings on record: human HDAC8, 50 μM substrate, 30° C., 2 h; read-out: IC50 (nM) of enzyme activity HDAC8.
In data set [1] the test system is Nuclear Extract from HeLa Cells. Nature of the data set: HeLa Nuclear Extract HDAC assay. Format: biochemical, human. To be noted: 50 μM substrate, 30° C., 2 h, read-out: IC50 (nM) of enzyme activity HeLa.
In the next data set the test system is MCF-7-218. Nature of the data set: Cancer cell growth inhibition, MCF-7-218. Format: cell-based. The settings on record: Homo sapiens; MCF-7-218, Breast Cancer, 72 h treatment. The procedure:
(§1) Cell culture-based assays were used to evaluate the ability of compounds of the invention to inhibit cancer cell growth inhibition.
(§2) Cells were obtained from the American Type Culture Collection (ATCC). Cells were cultured at 37° C. with 5% CO2 in the appropriate growth medium (see table below), and harvested respectively during the logarithmic growth period and counted with hemocytometer. The cell viability was over 98% by trypan blue exclusion. Cell concentrations were adjusted between 5×10^4 and 2×10^5 cells/ml with respective medium.
(§3) Stock solutions of test compounds and positive drugs Doxorubicin (Zhejiang, Haizheng, China), Paclitaxel (Beijing, Xiehe, China), Vincristin (Shenzhen Wanle, China), 5-FU (Tianjin jinyaoanjisuan, China), Irinotecan (Jiangsu Hengrui, China) and Cisplatin Nanjing zhiyao, China) were prepared in dimethyl sulphoxide (DMSO) or PBS at 20 mM.
(§4) All treatments were performed in triplicate. 10 μl drug solution was added to each well and incubated for 72 hours. At the end of the incubation, 20 μl of the freshly prepared MTS/PMS mixture solution was added to each well and incubated for 4 hours at 37° C. in a humidified, 5% CO2 atmosphere. Absorbance was read at 490 nm using SpectraMAX Plus microplate spectrophotometer. […] In order to calculate IC50, a dose-responsive curve was fitted using nonlinear regression model with a sigmoidal dose response.

Another data set relates to HCT-116. Nature of the data set: Cancer cell growth inhibition, HCT-116. The data set is classed as cell-based, human. To be noted: HCT-116, Colorectal Cancer, 72 h treatment. How it is done:
as §1, §2, §3, §4

The next data set relates to MIAPACA-2. Nature of the data set: Cancer cell growth inhibition, MIAPACA-2. The data set is classed as cell-based, human. The settings on record: MIAPACA-2, Pancreatic Cancer, 72 h treatment. The procedure:
as §1, §2, §3, §4

The subject of another data set is HepG2. Nature of the data set: Cancer cell growth inhibition, HepG2. The settings on record: HepG2, Liver Cancer, 72 h treatment. The data set is classed as cell-based, human. How it is done:
as §1, §2, §3, §4

Data set [2] has as its target histone deacetylase from rat liver. Nature of the data set: Rat liver HDAC assay. The data set is classed as biochemical. The settings on record: Boc-Lys(Ac)-AMC substrate, 30° C., 2 h, read-out: IC50 (nM) of enzyme activity Rat liver.
A further data set has as its system BT474. Nature of the data set: Cancer cell growth inhibition, BT474. The data set is classed as cell-based. The settings on record: Homo sapiens, BT-474; BT474, Breast Cancer, 72 h treatment. The procedure: as §1, §2, §3, §4
The next data set has as its system MCF-7-FL. Nature of the data set: Cancer cell growth inhibition, MCF-7-FL. The data set is classed as cell-based. To be noted: Homo sapiens, Breast Cancer, 72 h treatment. The procedure: as §1, §2, §3, §4
In the next data set the test system is HT-1080. Nature of the data set: Cancer cell growth inhibition, HT-1080. The data set is classed as cell-based. The settings on record: Homo sapiens; HT-1080, Fibrosarcoma, 72 h treatment. How it is done: as §1, §2, §3, §4
The test system of a further data set is SK-HEP-1. Nature of the data set: Cancer cell growth inhibition, SK-HEP-1. The data set is classed as cell-based. To be noted: Homo sapiens, SK-HEP1; SK-HEP-1, Liver Cancer, 72 h treatment. The procedure: as §1, §2, §3, §4
The next data set has as its system 143b. Nature of the data set: Cancer cell growth inhibition, 143b. Format: cell-based. To be noted: Homo sapiens, Osteosarcoma, 72 h treatment. How it is done: as §1, §2, §3, §4
Another data set deals with Colo205. Nature of the data set: Cancer cell growth inhibition, Colo205. The data set is classed as cell-based. To be noted: Homo sapiens, COLO 205; Colo205, Colorectal Cancer, 72 h treatment. How it is done: as §1, §2, §3, §4

Human HDAC1, sequence (Q13547 whole entry): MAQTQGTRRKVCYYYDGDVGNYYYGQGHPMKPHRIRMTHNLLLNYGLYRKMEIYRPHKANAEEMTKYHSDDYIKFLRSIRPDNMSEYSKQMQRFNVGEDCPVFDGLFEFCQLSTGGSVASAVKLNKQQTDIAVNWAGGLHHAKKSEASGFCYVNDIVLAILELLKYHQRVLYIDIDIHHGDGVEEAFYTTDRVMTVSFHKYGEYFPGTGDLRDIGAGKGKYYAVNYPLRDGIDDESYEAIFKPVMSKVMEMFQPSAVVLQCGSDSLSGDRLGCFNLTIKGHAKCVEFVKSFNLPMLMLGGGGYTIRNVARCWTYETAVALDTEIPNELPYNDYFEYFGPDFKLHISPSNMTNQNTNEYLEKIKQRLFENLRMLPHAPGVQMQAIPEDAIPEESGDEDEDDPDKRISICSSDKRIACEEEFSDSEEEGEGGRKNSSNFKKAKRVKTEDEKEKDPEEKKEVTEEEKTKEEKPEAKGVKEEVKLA
Human HDAC8, sequence (Q9BY41 whole entry): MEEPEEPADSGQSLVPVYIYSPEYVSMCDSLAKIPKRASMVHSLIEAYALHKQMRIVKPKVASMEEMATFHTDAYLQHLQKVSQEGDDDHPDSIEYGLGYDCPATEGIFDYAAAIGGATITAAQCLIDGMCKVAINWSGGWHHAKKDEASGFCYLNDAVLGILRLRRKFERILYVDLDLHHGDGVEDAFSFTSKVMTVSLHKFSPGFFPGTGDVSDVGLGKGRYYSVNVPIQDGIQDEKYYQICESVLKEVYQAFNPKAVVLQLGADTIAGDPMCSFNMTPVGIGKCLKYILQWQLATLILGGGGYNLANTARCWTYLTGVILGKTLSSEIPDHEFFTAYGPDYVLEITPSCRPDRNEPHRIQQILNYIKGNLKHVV
Human HDAC6, sequence (Q9UBN7 whole entry): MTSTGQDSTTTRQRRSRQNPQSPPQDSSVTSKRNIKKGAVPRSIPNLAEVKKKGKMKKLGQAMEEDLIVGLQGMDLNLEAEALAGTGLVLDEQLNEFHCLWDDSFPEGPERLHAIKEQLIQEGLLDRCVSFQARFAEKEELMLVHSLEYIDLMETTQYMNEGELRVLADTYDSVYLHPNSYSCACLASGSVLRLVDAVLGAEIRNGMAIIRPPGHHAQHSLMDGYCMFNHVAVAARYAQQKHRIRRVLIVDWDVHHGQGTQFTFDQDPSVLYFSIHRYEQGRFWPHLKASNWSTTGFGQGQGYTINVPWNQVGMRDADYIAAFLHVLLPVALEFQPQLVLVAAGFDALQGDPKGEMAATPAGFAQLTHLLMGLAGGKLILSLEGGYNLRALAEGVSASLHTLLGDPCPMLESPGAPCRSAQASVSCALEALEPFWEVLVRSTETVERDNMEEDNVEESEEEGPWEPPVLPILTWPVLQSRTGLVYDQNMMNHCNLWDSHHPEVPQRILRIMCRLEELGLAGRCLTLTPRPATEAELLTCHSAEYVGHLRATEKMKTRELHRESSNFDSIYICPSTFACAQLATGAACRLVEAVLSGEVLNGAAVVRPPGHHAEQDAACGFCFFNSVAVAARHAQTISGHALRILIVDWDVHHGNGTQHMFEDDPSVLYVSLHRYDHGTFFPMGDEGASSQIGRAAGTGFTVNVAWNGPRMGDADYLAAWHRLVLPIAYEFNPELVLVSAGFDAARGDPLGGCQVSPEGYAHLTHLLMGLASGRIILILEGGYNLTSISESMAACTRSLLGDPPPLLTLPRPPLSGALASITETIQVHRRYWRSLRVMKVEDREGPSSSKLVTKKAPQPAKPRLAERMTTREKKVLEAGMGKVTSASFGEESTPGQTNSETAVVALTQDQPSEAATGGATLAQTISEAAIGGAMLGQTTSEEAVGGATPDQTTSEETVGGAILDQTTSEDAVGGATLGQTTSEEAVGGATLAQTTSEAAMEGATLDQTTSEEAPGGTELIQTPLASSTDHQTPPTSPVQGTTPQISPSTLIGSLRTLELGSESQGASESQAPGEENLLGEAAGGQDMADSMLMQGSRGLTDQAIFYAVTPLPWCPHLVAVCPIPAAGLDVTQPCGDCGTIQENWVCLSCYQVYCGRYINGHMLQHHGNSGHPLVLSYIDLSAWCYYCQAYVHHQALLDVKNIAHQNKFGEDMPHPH
Human HDAC2, sequence (Q92769 whole entry): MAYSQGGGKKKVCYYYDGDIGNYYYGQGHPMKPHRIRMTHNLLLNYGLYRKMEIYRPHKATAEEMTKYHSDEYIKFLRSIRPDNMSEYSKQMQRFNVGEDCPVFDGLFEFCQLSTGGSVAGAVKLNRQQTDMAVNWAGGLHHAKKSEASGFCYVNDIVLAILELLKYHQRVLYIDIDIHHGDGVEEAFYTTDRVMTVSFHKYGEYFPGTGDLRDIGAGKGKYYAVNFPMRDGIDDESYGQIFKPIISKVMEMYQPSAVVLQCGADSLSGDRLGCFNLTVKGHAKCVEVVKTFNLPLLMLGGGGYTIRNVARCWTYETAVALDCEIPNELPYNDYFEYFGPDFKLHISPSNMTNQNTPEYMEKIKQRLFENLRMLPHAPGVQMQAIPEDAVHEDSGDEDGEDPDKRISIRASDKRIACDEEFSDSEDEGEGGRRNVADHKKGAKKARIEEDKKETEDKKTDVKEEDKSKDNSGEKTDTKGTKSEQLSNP
Human HDAC3/NcoR2, sequence (O15379 whole entry): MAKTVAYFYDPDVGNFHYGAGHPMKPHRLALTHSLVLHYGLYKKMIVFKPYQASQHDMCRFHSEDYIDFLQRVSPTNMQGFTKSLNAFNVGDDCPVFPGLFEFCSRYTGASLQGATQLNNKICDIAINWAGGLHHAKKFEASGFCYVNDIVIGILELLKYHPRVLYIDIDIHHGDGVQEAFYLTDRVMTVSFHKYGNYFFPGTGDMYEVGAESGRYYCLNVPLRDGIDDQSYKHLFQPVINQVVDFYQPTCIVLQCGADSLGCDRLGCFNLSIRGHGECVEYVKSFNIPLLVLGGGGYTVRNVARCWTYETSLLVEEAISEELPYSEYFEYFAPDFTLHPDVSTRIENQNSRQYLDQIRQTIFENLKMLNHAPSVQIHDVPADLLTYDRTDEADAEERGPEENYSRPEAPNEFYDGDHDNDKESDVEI
Human HDAC3/NcoR2, sequence (Q9Y618 395-489 partner): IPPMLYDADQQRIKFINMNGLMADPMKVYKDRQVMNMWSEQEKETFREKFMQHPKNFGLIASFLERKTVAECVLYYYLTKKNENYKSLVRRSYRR

As to `COc1ccc(-c2cc(-c3ccccc3)[nH]c2C(=O)NCc2ccc(C(=O)Nc3ccccn3)cc2)cc1` [Example 25, 3-(4-methoxyphenyl)-5-phenyl-N-{4-[(pyridin-2-ylamino)carbonyl]benzyl}-1H-pyrrole-2-carboxamide], the melting point was 196 °C (dec.). For the same molecule, the IC50 at Human HDAC1 was > 5000 nM. The 50% inhibitory concentration (IC50) at Human HDAC2 was > 5000 nM. On Human HDAC3/NcoR2, the half-maximal inhibitory concentration (IC50) is > 5000 nM. Also, at Human HDAC6, the IC50 is > 5000 nM. In addition, on Human HDAC8, the half-maximal inhibitory concentration (IC50) is > 5000 nM. In addition, the IC50 in data set [1] is > 5000 nM.
Turning to `CC(=O)O[C@H]1C(=O)[C@@]2(C)[C@H]([C@H](OC(=O)c3ccccc3)[C@]3(O)C[C@H](OC(=O)[C@H](O)[C@@H](NC(=O)c4ccccc4)c4ccccc4)C(C)=C1C3(C)C)[C@]1(OC(C)=O)CO[C@@H]1C[C@@H]2O` [Paclitaxel, reference compound], the half-maximal inhibitory concentration (IC50) in the data set on MCF-7-218 is 285 nM.
`O=c1[nH]cc(F)c(=O)[nH]1` [Example 5-FU, 5-FU, reference compound]: the values for the IC50 in the data set on HCT-116, in the data set on MIAPACA-2 and in the data set on HepG2 were 1710 nM, 7610 nM and 3280 nM, respectively.
Consider `COc1ccc(-c2cc(-c3ccccc3)[nH]c2C(=O)NCc2ccc(C(=O)Nc3ncccn3)cc2)cc1` [Example 26, 3-(4-methoxyphenyl)-5-phenyl-N-{4-[(pyrimidin-2-ylamino)carbonyl]benzyl}-1H-pyrrole-2-carboxamide], for which the melting point is 190 to 191 °C. Also, on Human HDAC1, the IC50 is > 5000 nM. The half-maximal inhibitory concentration (IC50) on Human HDAC2 is > 5000 nM. Also, the IC50 at Human HDAC3/NcoR2 is > 5000 nM. Further, on Human HDAC6, the IC50 was > 5000 nM. Further, the IC50 on Human HDAC8 was > 5000 nM. The IC50 in data set [1] was > 5000 nM.
For `COc1ccc(-c2cc(-c3ccccc3)[nH]c2C(=O)NCc2ccc(C(=O)Nc3ccccc3S)cc2)cc1` [Example 22, 3-(4-methoxyphenyl)-5-phenyl-N-(4-{[(2-sulfanylphenyl)amino]carbonyl}benzyl)-1H-pyrrole-2-carboxamide], the melting point was 134 to 135 °C. Further, the IC50 on Human HDAC1 was > 5000 nM. In addition, the IC50 on Human HDAC2 is > 5000 nM. Besides, at Human HDAC3/NcoR2, the half-inhibitory concentration (IC50) was > 5000 nM. At Human HDAC6, the IC50 is > 5000 nM. Moreover, the half-inhibitory concentration (IC50) on Human HDAC8 was > 5000 nM. Besides, the IC50 in data set [1] was > 5000 nM. In addition, in [2], the IC50 is > 10000 nM.
The molecule `O=C(NO)c1ccc(CNC(=O)c2[nH]c(-c3cccs3)cc2-c2ccc(O)cc2)cc1` [Example 13, N-{4-[(hydroxyamino)carbonyl]benzyl}-3-(4-hydroxyphenyl)-5-(2-thienyl)-1H-pyrrole-2-carboxamide] returned a melting point of 171 to 172 °C. The IC50 on Human HDAC1 is 865 nM. Further, the half-maximal inhibitory concentration (IC50) at Human HDAC2 was 1910 nM. At Human HDAC3/NcoR2, the IC50 is 614 nM. For the same molecule, the half-inhibitory concentration (IC50) at Human HDAC6 was 6.6 nM. Moreover, the IC50 on Human HDAC8 was found to be 559 nM. The 50% inhibitory concentration (IC50) in data set [1] was determined as 42 nM.
In the case of `COc1cccc2c1C(=O)c1c(O)c3c(c(O)c1C2=O)C[C@@](O)(C(=O)CO)C[C@@H]3O[C@H]1C[C@H](N)[C@H](O)[C@H](C)O1` [Doxorubicin, reference compound], the half-inhibitory concentration (IC50) with BT474 stood at 4500 nM; with MCF-7-FL, 2370 nM; in the data set on HT-1080, 25.6 nM; with SK-HEP-1, 164 nM; in the data set on 143b, 86.1 nM.
In the case of `O=C(NO)c1ccc(CNC(=O)c2[nH]c(-c3ccccc3)cc2-c2ccc(O)cc2)cc1` [Example 10, N-{4-[(hydroxyamino)carbonyl]benzyl}-3-(4-hydroxyphenyl)-5-phenyl-1H-pyrrole-2-carboxamide], the melting point is 139 to 141 °C. In addition, the IC50 at Human HDAC1 worked out at 473 nM. The IC50 on Human HDAC2 turned out to be 1390 nM. Further, the IC50 at Human HDAC3/NcoR2 was determined as 512 nM. Also, the concentration for half-maximal inhibition (IC50) at Human HDAC6 is 10.8 nM. Further, the 50% inhibitory concentration (IC50) on Human HDAC8 was 340 nM. In addition, the IC50 in data set [1] worked out at 34 nM. For the same molecule, the IC50 in data set [2] came to 66 nM.
With `CCc1c2c(nc3ccc(OC(=O)N4CCC(N5CCCCC5)CC4)cc13)-c1cc3c(c(=O)n1C2)COC(=O)[C@]3(O)CC` [Irinotecan, reference compound], in the data set on Colo205, the 50% inhibitory concentration (IC50) was 16600 nM.
In the case of `O=C(NO)c1ccc(CNC(=O)c2[nH]c(-c3ccoc3)cc2-c2ccc(F)cc2)cc1` [Example 12, 3-(4-fluorophenyl)-5-(3-furyl)-N-{4-[(hydroxyamino)carbonyl]benzyl}-1H-pyrrole-2-carboxamide], the melting point fell in the range of 162 to 164 °C. In addition, the IC50 on Human HDAC1 was 384 nM. In addition, the 50% inhibitory concentration (IC50) on Human HDAC2 turned out to be 1150 nM. Besides, the half-maximal inhibitory concentration (IC50) on Human HDAC3/NcoR2 amounted to 451 nM. The IC50 on Human HDAC6 is 42.8 nM. Moreover, the IC50 at Human HDAC8 amounted to 124 nM. For the same molecule, the concentration for half-maximal inhibition (IC50) in data set [1] was determined as 46.4 nM. Besides, in data set [2], the 50% inhibitory concentration (IC50) turned out to be 56 nM.
Regarding `COc1ccc(-c2cc(-c3ccccc3)[nH]c2C(=O)NCc2ccc(C(=O)Nc3ccccc3N)cc2)cc1` [Example 21, N-(4-{[(2-aminophenyl)amino]carbonyl}benzyl)-3-(4-methoxyphenyl)-5-phenyl-1H-pyrrole-2-carboxamide], the melting point was 142 to 143 °C (dec.). The IC50 on Human HDAC1 was found to be 390 nM. For the same molecule, the IC50 at Human HDAC2 came to 1260 nM. The IC50 on Human HDAC3/NcoR2 was 3900 nM. At Human HDAC6, the IC50 is > 5000 nM. Besides, the concentration for half-maximal inhibition (IC50) at Human HDAC8 was > 5000 nM. In addition, in [1], the IC50 was 7010 nM. In data set [2], the concentration for half-maximal inhibition (IC50) was > 10000 nM.

(Values after US8685992B2, “Histone deacetylase inhibitors based simultaneously on trisubstituted 1H-pyrroles and aromatic and heteroaromatic spacers” (Universidad del País Vasco, priority 2009, dated 2014).)
